Data as given in the NIST ThermoML archive (doi:10.1021/je100581m).
± gives the expanded uncertainty stated by the source.

Key:
[1] = xn = mol fraction of the nth substance listed; details: Liquid, Vibrating tube method, x1 = 1
[2] = Liquid, Vibrating tube method

| mass density ([1]; 283.15 K, 100 kPa) | mass density ([1]; 283.15 K, 5000 kPa) | mass density ([1]; 283.15 K, 10000 kPa) | mass density ([1]; 283.15 K, 15000 kPa) | mass density ([1]; 283.15 K, 20000 kPa) | mass density ([1]; 298.15 K, 100 kPa) | mass density ([1]; 298.15 K, 5000 kPa) | mass density ([1]; 298.15 K, 10000 kPa) | mass density ([1]; 298.15 K, 15000 kPa) | mass density ([1]; 298.15 K, 20000 kPa) | mass density ([1]; 313.15 K, 100 kPa) | mass density ([1]; 313.15 K, 5000 kPa) | mass density ([1]; 313.15 K, 10000 kPa) | mass density ([1]; 313.15 K, 15000 kPa) | mass density ([1]; 313.15 K, 20000 kPa) | mass density ([1]; 328.15 K, 100 kPa) | mass density ([1]; 328.15 K, 5000 kPa) | mass density ([1]; 328.15 K, 10000 kPa) | mass density ([1]; 328.15 K, 15000 kPa) | mass density ([1]; 328.15 K, 20000 kPa) | other results | Structure (SMILES) |
| --- | --- | --- | --- | --- | --- | --- | --- | --- | --- | --- | --- | --- | --- | --- | --- | --- | --- | --- | --- | --- | --- |
| 810.9 ± 1 kg/m3 | 814.7 ± 1 kg/m3 | 818.1 ± 1 kg/m3 | 821.7 ± 1 kg/m3 | 824.9 ± 1 kg/m3 | 799 ± 1 kg/m3 | 803 ± 1 kg/m3 | 806.9 ± 1 kg/m3 | 810.6 ± 1 kg/m3 | 814.1 ± 1 kg/m3 | 786.8 ± 1 kg/m3 | 791.2 ± 1 kg/m3 | 795.3 ± 1 kg/m3 | 799.3 ± 1 kg/m3 | 803.1 ± 1 kg/m3 | 774.5 ± 1 kg/m3 | 779.1 ± 1 kg/m3 | 783.7 ± 1 kg/m3 | 787.8 ± 1 kg/m3 | 791.9 ± 1 kg/m3 | – | CCCO [propan-1-ol] + C=CC(C)(O)CCC=C(C)C |
| – | – | – | – | – | – | – | – | – | – | – | – | – | – | – | – | – | – | – | – | mass density ([2]; 283.15 K, 100 kPa): 797.7 ± 1 kg/m3; mass density ([2]; 283.15 K, 5000 kPa): 801.8 ± 1 kg/m3; mass density ([2]; 283.15 K, 10000 kPa): 805.6 ± 1 kg/m3; mass density ([2]; 283.15 K, 15000 kPa): 809.6 ± 1 kg/m3; mass density ([2]; 283.15 K, 20000 kPa): 813.1 ± 1 kg/m3; mass density ([2]; 298.15 K, 100 kPa): 784.9 ± 1 kg/m3; mass density ([2]; 298.15 K, 5000 kPa): 789.3 ± 1 kg/m3; mass density ([2]; 298.15 K, 10000 kPa): 793.6 ± 1 kg/m3; mass density ([2]; 298.15 K, 15000 kPa): 797.7 ± 1 kg/m3; mass density ([2]; 298.15 K, 20000 kPa): 801.6 ± 1 kg/m3; mass density ([2]; 313.15 K, 100 kPa): 771.9 ± 1 kg/m3; mass density ([2]; 313.15 K, 5000 kPa): 776.8 ± 1 kg/m3; mass density ([2]; 313.15 K, 10000 kPa): 781.3 ± 1 kg/m3; mass density ([2]; 313.15 K, 15000 kPa): 785.7 ± 1 kg/m3; mass density ([2]; 313.15 K, 20000 kPa): 789.9 ± 1 kg/m3; mass density ([2]; 328.15 K, 100 kPa): 758.6 ± 1 kg/m3; mass density ([2]; 328.15 K, 5000 kPa): 763.8 ± 1 kg/m3; mass density ([2]; 328.15 K, 10000 kPa): 768.9 ± 1 kg/m3; mass density ([2]; 328.15 K, 15000 kPa): 773.6 ± 1 kg/m3; mass density ([2]; 328.15 K, 20000 kPa): 778.1 ± 1 kg/m3 | CCO [ethanol] |
| – | – | – | – | – | – | – | – | – | – | – | – | – | – | – | – | – | – | – | – | mass density ([2]; 283.15 K, 100 kPa): 810.9 ± 1 kg/m3; mass density ([2]; 283.15 K, 5000 kPa): 814.7 ± 1 kg/m3; mass density ([2]; 283.15 K, 10000 kPa): 818.1 ± 1 kg/m3; mass density ([2]; 283.15 K, 15000 kPa): 821.7 ± 1 kg/m3; mass density ([2]; 283.15 K, 20000 kPa): 824.9 ± 1 kg/m3; mass density ([2]; 298.15 K, 100 kPa): 799 ± 1 kg/m3; mass density ([2]; 298.15 K, 5000 kPa): 803 ± 1 kg/m3; mass density ([2]; 298.15 K, 10000 kPa): 806.9 ± 1 kg/m3; mass density ([2]; 298.15 K, 15000 kPa): 810.6 ± 1 kg/m3; mass density ([2]; 298.15 K, 20000 kPa): 814.1 ± 1 kg/m3; mass density ([2]; 313.15 K, 100 kPa): 786.8 ± 1 kg/m3; mass density ([2]; 313.15 K, 5000 kPa): 791.2 ± 1 kg/m3; mass density ([2]; 313.15 K, 10000 kPa): 795.3 ± 1 kg/m3; mass density ([2]; 313.15 K, 15000 kPa): 799.3 ± 1 kg/m3; mass density ([2]; 313.15 K, 20000 kPa): 803.1 ± 1 kg/m3; mass density ([2]; 328.15 K, 100 kPa): 774.5 ± 1 kg/m3; mass density ([2]; 328.15 K, 5000 kPa): 779.1 ± 1 kg/m3; mass density ([2]; 328.15 K, 10000 kPa): 783.7 ± 1 kg/m3; mass density ([2]; 328.15 K, 15000 kPa): 787.8 ± 1 kg/m3; mass density ([2]; 328.15 K, 20000 kPa): 791.9 ± 1 kg/m3 | CCCO [propan-1-ol] |
| 797.7 ± 1 kg/m3 | 801.8 ± 1 kg/m3 | 805.6 ± 1 kg/m3 | 809.6 ± 1 kg/m3 | 813.1 ± 1 kg/m3 | 784.9 ± 1 kg/m3 | 789.3 ± 1 kg/m3 | 793.6 ± 1 kg/m3 | 797.7 ± 1 kg/m3 | 801.6 ± 1 kg/m3 | 771.9 ± 1 kg/m3 | 776.8 ± 1 kg/m3 | 781.3 ± 1 kg/m3 | 785.7 ± 1 kg/m3 | 789.9 ± 1 kg/m3 | 758.6 ± 1 kg/m3 | 763.8 ± 1 kg/m3 | 768.9 ± 1 kg/m3 | 773.6 ± 1 kg/m3 | 778.1 ± 1 kg/m3 | – | CCO [ethanol] + C=CC(C)(O)CCC=C(C)C |
